One assay deals with BsuCA1 (BsCA1). The format is biochemical, Brucella suis. The conditions noted are these: read-out: KI (nM) ^* / BsuCA1^b.
The next assay concerns the target BsuCA2 (BsCA2). It counts as biochemical, Brucella suis. The conditions noted are these: read-out: KI (nM) ^* / BsuCA2^b.

`NS(=O)(=O)c1cnccc1N1CCN(Cc2ccccc2)CC1` [compound 10, 10]: the Ki on BsuCA1 (BsCA1) was determined as 34 nM; on BsuCA2 (BsCA2) it was 97 nM.
Turning to `NS(=O)(=O)c1cnccc1N1CCN(Cc2ccc3c(c2)OCO3)CC1` [compound 11, 11], the Ki at BsuCA1 (BsCA1) worked out at 36 nM; on BsuCA2 (BsCA2), 336 nM.
On to `NS(=O)(=O)c1cnccc1N1CCC(Cc2ccccc2)CC1` [compound 12, 12], for which, at BsuCA1 (BsCA1), the Ki was 40 nM.
On to `Cc1cc(C)n(-c2ccncc2S(N)(=O)=O)n1` [compound 13, 13], for which the Ki at BsuCA1 (BsCA1) was found to be 38 nM; at BsuCA2 (BsCA2), 780 nM.
In the case of `Cc1nn(-c2ccncc2S(N)(=O)=O)c(C)c1C` [compound 14, 14], the Ki at BsuCA1 (BsCA1) is 45 nM.
In the case of `CCCCc1c(C)nn(-c2ccncc2S(N)(=O)=O)c1C` [compound 15, 15], the Ki on BsuCA1 (BsCA1) was determined as 47 nM.
For the compound `CCOC(=O)CCc1c(C)nn(-c2ccncc2S(N)(=O)=O)c1C` [compound 16, 16], the results for the Ki at BsuCA1 (BsCA1) and at BsuCA2 (BsCA2) were 41 nM and 706 nM, respectively.
As to `CCc1cc(CC)n(-c2ccncc2S(N)(=O)=O)n1` [compound 17, 17], the Ki on BsuCA2 (BsCA2) came out at 420 nM.
